The values below come from patent US20020132030A1, “Composition and method for prolonging the useful life of enteral feeding tubes” (priority 1999, published 2002).

The structures appear in SMILES notation.

Assay [1] relates to Candida albicans. The experiment in a line: Challenge of propyl paraben, sodium benzoate, potassium sorbate singly and in combinations in Isosource HN, Example 4. Format: cell-based. The settings on record: 0.13% propyl paraben, 0.1% sodium benzoate, 0.1% potassium sorbate in Isosource HN. Here is the method: (§1) The antimicrobials, propyl paraben, sodium benzoate, and potassium sorbate are challenged singly, and in combinations, against 5 organisms.
(§2) Isosource HN® is packaged and retorted with the allowable FDA limits. Three samples, A, B, or C are prepared, having, respectively, 0.13% propyl paraben (A), 0.1% sodium benzoate (B), and 0.1% potassium sorbate (C). Additional samples D, E, and F are mixtures of A & B, A & C, and A & B & C. Three control samples: G having 0.26% ethanol; H having no preservatives and 1, a blank control are also prepared. A 350-ml aliquot of each retorted product is transferred to a sterile flask and inoculated with one of the designated organisms. A like trial is initiated for each of five organisms, Aspergillus niger, Candida albicans, Enterobacter cloacae, Staphylococcus aureus, and Lactobacillus delbrueckii. These organisms are inoculated, respectively, at 44 organisms/ml product; 2 organisms/ml product; 2 organisms/ml product; 4.1 organisms/ml product, and 30 organisms/ml product. An ethanol control is included for all the tests because it is used as the solvent carrier for paraben. An inoculated control with no inhibitors is also used for comparison. The samples are incubated at the appropriate temperature for optimum growth, and aliquots are pulled for testing at the designated intervals. Results are read and recorded as the population per milliliter of sample tested.

Assay [2] concerns Enterobacter cloacae. Described as above. It counts as cell-based. The settings on record: 0.13% propyl paraben, 0.1% sodium benzoate, 0.1% potassium sorbate in Isosource HN. The procedure:
as §1, §2

The subject of assay [3] is 6 different organisms: A. niger, B. stearotherm, C. albicans, E. cloacae, L. Leichmanii, and S. aureus. The experiment in a line: Challenge study using combinations, overall summary over all organisms, Example 2. It counts as cell-based. Conditions: for synergistic effect: in combination with one of the parabens. Here is the method:
(§3) A challenge study is done on commercially sterile product containing combinations of 4 GRAS antimicrobial agents: methyl paraben, propyl paraben, diacetyl, and natamycin. Ten different matrices are tested against 6 different organisms: A. niger, B. stearotherm, C. albicans, E. cloacae, L. Leichmanii, and S. aureus.

The subject of a further assay is Lactobacillus leichmanni. Nature of the assay: Challenge study using combinations of 4 GRAS antimicrobial agents, Example 2. Format: cell-based. Conditions: 0.2%. The procedure: as §3
Assay [4] concerns Candida albicans. Described as above. It counts as cell-based. The settings on record: 0.2%. The procedure:
as §3

In assay [5] the test system is Bacillus stearothermophilus. Described as above. It counts as cell-based. Here is the method:
as §3

In assay [6] the test system is Aspergillus niger. Described as above. It counts as cell-based. The settings on record: for effectiveness against growth of Aspergillus niger: 0.2%. Here is the method:
as §3

The test system of assay [7] is Enterobacter cloacae. Described as above. The settings on record: 0.2%. It counts as cell-based. Here is the method:
as §3

The test system of assay [8] is Enterobacter cloacae. The experiment in a line: Paraben challenge in commercially sterile product (Isosource), Example 1. It counts as cell-based. The settings on record: 0.1% in Isosource; for Inhibition of Enterobacter cloacae: 24 hours. The procedure:
(§4) Commercially sterile product (Isosource®) with 0.1% methyl or propyl paraben is prepared. Organisms were challenged in both variations at their optimum growth temperature and room temperature (RT). The populations are determined at different time intervals and compared to a spiked control without the parabens.

The next assay deals with 5 organisms. The experiment in a line: Challenge of three antimicrobials, overall summary over 5 organisms, Example 4. Format: cell-based. The settings on record: 0.13% propyl paraben, 0.1% sodium benzoate, 0.1% potassium sorbate in Isosource HN. The procedure: as §1
as §2, with “The samples are incubated at the appropriate temperature for optimum growth, and aliquots are pulled for testing at the designated intervals.” left out

Another assay has as its system Staphylococus aureus. Nature of the assay: Challenge study using combinations of 4 GRAS antimicrobial agents, Example 2. It counts as cell-based. Here is the method: as §3
Assay [9] deals with Candida albicans. The experiment in a line: Feeding tube lifetime (clogging) test in vitro, Example 3. The settings on record: 0.1% in formula, feeding tube inoculated with 100 CFU Candida albicans, approximately 30° C. The procedure: Feeding solution is perfused through a feeding tube and maintained at approximately 30° C. during the test, which may last several days or weeks. At the time the test is begun the solution within the feeding tube is inoculated with 100 CFU of Candida albicans. After a few hours of incubation (no flow in the tube), perfusion is started and continued until the tube becomes clogged due to overgrowth of the microorganisms.

Assay [10] deals with Candida albicans. Nature of the assay: Paraben challenge in commercially sterile product (Isosource), Example 1. Format: cell-based. Conditions: 0.1% in Isosource. The procedure: as §4
Assay [11] deals with Aspergillus niger. Nature of the assay: Challenge of propyl paraben, sodium benzoate, potassium sorbate singly and in combinations in Isosource HN, Example 4. It counts as cell-based. Here is the method: as §1, §2

In the case of `C/C=C/C=C/C(=O)[O-].[K+]` [Potassium sorbate, potassium sorbate], the “inhibition of Candida albicans” value in the assay with Candida albicans [1] is “not effective”. Also, the “Inhibition of Enterobacter cloacae” value in the assay on Enterobacter cloacae [2] is given as “most effective agent alone”.

In the case of `CC(=O)C(C)=O` [diacetyl], the “effectiveness alone compared with the parabens” value in assay [3] (alone) is “not as effective alone as the parabens”. The synergistic effect result in [3] was “does not contribute any synergistic effect”.

As to `COC(=O)c1ccc(O)cc1` [methyl paraben], in assay [3] (alone), the “inhibition of the other organisms” value is listed as “slightly inhibitory on three others”. Besides, in the assay on Lactobacillus leichmanni, the “effectiveness against Lactobacillus leichmanni” value is “effective”. The “inhibition of Candida albicans” value in the assay on Candida albicans [4] is listed as “slight inhibitory effect”. For the same compound, the “inhibition of Bacillus stearothermophilus growth” value in assay [5] is reported as “greatest amount of inhibition”. Besides, the “effectiveness alone against Bacillus” value in assay [5] (alone, summary statement) is listed as “very effective”. In addition, the “effectiveness against growth of Aspergillus niger” value with Aspergillus niger [6] is given as “most effective”. The “effectiveness alone against Aspergillus” value in the assay with Aspergillus niger [6] (alone, summary statement) is given as “very effective”. Besides, the results for the “effect on Enterobacter cloacae growth” value in the assay on Enterobacter cloacae [7] (first 24 hours) and in the assay with Enterobacter cloacae [7] (otherwise (other than first 24 hours)) were “slows growth slightly” and “uninhibited”, respectively. Also, the “Inhibition of Enterobacter cloacae” value with Enterobacter cloacae [8] (35° C.) is listed as “dramatic”; in the assay on Enterobacter cloacae [8] (room temperature) it was “slight inhibition”. In the assay on Enterobacter cloacae [8] (35° C., 48 hours), the “difference in population compared to the control” value worked out at 0.5 logs. In addition, in the assay with Enterobacter cloacae [8] (room temperature, 48 hours), the “growth lower than the propyl paraben sample” value was determined as 1.5 logs.

For `C[C@@H]1C/C=C/C=C/C=C/C=C/[C@H](O[C@@H]2O[C@H](C)[C@@H](O)[C@H](N)[C@@H]2O)C[C@@H]2O[C@](O)(C[C@@H](O)C[C@H]3O[C@@H]3/C=C/C(=O)O1)C[C@H](O)[C@H]2C(=O)O` [natamycin], in [3] (alone), the “effectiveness alone compared with the parabens” value was “not as effective alone as the parabens”. Further, the synergistic effect result in [3] is reported as “does not contribute any synergistic effect”.

On to `CCCOC(=O)c1ccc(O)cc1` [propyl paraben], for which, in the assay with 5 organisms, the “overall effectiveness over the five challenge organisms” value was “more effective against 4 of the organisms than either of the other 2 antimicrobials alone”. Besides, in assay [3] (0.2%), the “organisms showing good inhibition” value is “good inhibition of three out of the six organisms” and the “overall inhibitory effectiveness among agents” value is listed as “most effective inhibitory agent overall”. Moreover, in the assay on Staphylococus aureus (0.2% propyl paraben, summary statement), the “inhibition against S. aureus” value is “slight inhibition”. In the assay with Staphylococus aureus (0.2%, first 24 hours), the “inhibitory effect on Staphylococus aureus” value was “slight inhibitory effect”. Also, the “effectiveness against Lactobacillus leichmanni” value in the assay on Lactobacillus leichmanni was “effective”. The “inhibition of Candida albicans” value in the assay with Candida albicans [4] is listed as “good inhibition”. In the assay with Aspergillus niger [6], the “effectiveness against growth of Aspergillus niger” value is reported as “most effective”. In addition, the “extension of the time when clogging occurred beyond that attained with no paraben” value in the assay with Candida albicans [9] lay in the range of 1 to 2 weeks. Besides, the “lower CFU/ml of Candida albicans than the control” value with Candida albicans [10] (7 days) is 2-3 log cycle. Also, the “difference in Candida albicans CFU/ml from the control” value in the assay with Candida albicans [10] (14 days) was less than 2 logs. The “Aspergillus niger growth inhibition” value in the assay on Aspergillus niger [11] (0.13% propyl paraben in Isosource HN, compared with the other antimicrobials) was “inhibited most”. In addition, the “spore growth of Aspergillus niger” value in the assay with Aspergillus niger [11] (7 days) is recorded as “do not exhibit spore growth”.
